Laboratory results reported in patent US20230414543A1, “METHOD OF FEEDING A GESTATING OR LACTATING ANIMAL” (NUTRECO IP ASSETS B.V., priority 2021, published 2023).
Where two headings read alike, the source gives them in different places.

How the values were obtained:
colostrum of sows = tested on: colostrum of sows
Source text: (§1) From day 80 of gestation up to parturition (day 115 of gestation), and subsequently through the whole period of lactation from parturition until weaning (25 days after parturition), sows of various parities were fed a top dress of 100 g/day on top of their normal diet. […] The placebo top dress was formulated from barley, wheat, corn, wheat bran, molasses, vegetable oil, and sugar. […] The ingredient (40%) was embedded in a matrix of hydrogenated fat (50%) and calcium carbonate (10%).
Colostrum samples were collected just after the first piglet was born and were analyzed for total solids, protein, and lactose, using Brix refractometry. Brix refractometry is a method to measure the concentration of solutes in a solution, based on the refraction of light, and is widely used to analyze milk samples in the dairy industry (for example: Lokke M M, Engelbrecht R, Wiking L. Covariance structures of fat and protein influence the estimation of IgG in bovine colostrum. Journal of Dairy Research (2016), 83: 58-66). […] Total solids is the sum of protein, fat, and lactose.
The total output of nutrients (protein, lactose, or total solids) per sow was calculated by multiplying the volume of colostrum per sow (Table 2) with the concentration (Table 3) of each nutrient.

[1] = tested on: gestating or lactating sows and their litters
Source text: as §1
(§2) During gestation, sows were fed the normal diet at approximately 3 kg/day. In lactation, all sows were fed the normal diet at an increasing level following a set feeding scheme, starting from 3 kg after parturition, and increasing by 0.5 kg each day to the maximum intake capacity of each sow. The allowance was capped at a maximum of 9 kg/day.
At parturition, piglets were weighed immediately as they were born, and again at 24 h after birth, to estimate colostrum intake based on the algorithm developed by Theil et al. (Mechanistic model to predict colostrum intake based on deuterium oxide dilution technique data and impact of gestation and prefarrowing diets on piglet intake and sow yield of colostrum. J. Anim. Sci. 2014, 92:5507-5519). One day after parturition, when 24-h weights had been recorded, litter size was standardized by cross-fostering, to 14 or 15 piglets per litter. […] As a measure of milk production, the weight gain of the litter was measured at 7 days after parturition, and again at 24 days of lactation, just before piglets were weaned. […] When analyzing the data, litter weight gain was corrected for litter size.

[2] = tested on: gestating or lactating sows and their litters; remark: listed apart in the source
Source text: From day 109 of gestation up to parturition (day 115 of gestation), and subsequently through the whole period of lactation from parturition until weaning (25 days after parturition), sows of various parities were fed a top dress of 100 g/day on top of their normal diet. […] The placebo top dress was formulated from barley, wheat, corn, wheat bran, molasses, vegetable oil, and sugar.
as §2
At parturition, piglets were weighed immediately as they were born. One day after parturition, litter size was standardized by cross-fostering, to 14 or 15 piglets per litter. Piglets were only cross-fostered to sows within the same treatment. As a measure of milk production, the weight gain of the litter was measured at 7 days after parturition, and again at 21 days of lactation, just before piglets were weaned (24 days of lactation). […] When analyzing the data, litter weight gain was corrected for litter size.

[3] = Brix refractometry, sample just after first piglet was born
[4] = volume of colostrum × concentration
[5] = corrected for litter size, 4 g/day, day 80 of gestation until weaning
[6] = piglets, 4 g/day, day 80 of gestation until weaning

calcium gluconate
Concentration of solutes in colostrum: Lactose (colostrum of sows; [3]): 2.4% | Concentration of solutes in colostrum: Protein (colostrum of sows; [3]): 17.5% | Higher output of total solids, total protein and lactose compared to placebo (colostrum of sows; colostrum): 6-10% | Concentration of solutes in colostrum: Total solids (colostrum of sows; total of fat, protein and lactose, Brix refractometry, sample just after first piglet was born): 25.0% | Total output of nutrients per sow: Total lactose per sow (colostrum of sows; [4]): 136 g | Total output of nutrients per sow: Total protein per sow (colostrum of sows; [4]): 1008 g | Total output of nutrients per sow: Total solids per sow (colostrum of sows; [4]): 1437 g | Litter weight gain d1-d7, kg per litter [1, 5]: 16.9 kg per litter | Litter weight gain d1-d24, kg per litter [1, 5]: 70.0 kg per litter | Total colostrum intake per litter ([1]; corrected for litter size, estimated from piglet weights at birth and 24 h (Theil et al.), 4 g/day calcium gluconate in fat matrix, top dress from day 80 of gestation until weaning): 5565 g | Increase of litter weight gain compared to placebo ([1]; first seven days of lactation): 7.6% | Litter size at weaning, difference compared to placebo ([1]; piglets per litter): 0.3 | Numbers weaned ([1]; piglets per litter, 4 g/day, day 80 of gestation until weaning): 13.2 | Neonatal mortality up to day 7 [1, 6]: 8.4% | Pre-wean mortality [1, 6]: 9.6% | Neonatal survival compared to placebo ([1]; result in words): greater | Survival throughout the whole lactation period compared to placebo ([1]; result in words): greater | Increase of litter weight gain compared to placebo ([1]; whole lactation period): 5% | Litter weight gain day 1-day 21 ([2]; 4 g/day, day 109 of gestation until weaning): 67.1 kg | Litter size at weaning, difference compared to placebo ([2]; piglets per litter): 0.4 | Survival of piglets throughout the whole lactation period compared to placebo ([2]; result in words): greater | Litter gain, difference compared to placebo ([2]; when correcting for the number of piglets weaned): 2.2 kg
